Measured values: paper PMC4971745, “Evaluation of a Set of C9 N-acyl Neu5Ac2en Mimetics as Viral Sialidase Selective Inhibitors” (International Journal of Medicinal Chemistry, 2010)

Columns and labels:
[1] = system: sialidase of influenza A virus A/Duck/313/78 (H5N3); assay type: biochemical; conditions: pH 6; read-out: Viral sialidase inhibition (IC50) H5N3
[2] = biological target: T1, sialidase of influenza A virus A/Memphis/1/71 (H3N2) (Influenza A virus, UniProt P03475); assay: biochemical
T1 construct: preincubated with 5 μL of the virus containing 2 enzyme units; host or cells: whole virus preparation
T1 sequence (P03475 whole entry): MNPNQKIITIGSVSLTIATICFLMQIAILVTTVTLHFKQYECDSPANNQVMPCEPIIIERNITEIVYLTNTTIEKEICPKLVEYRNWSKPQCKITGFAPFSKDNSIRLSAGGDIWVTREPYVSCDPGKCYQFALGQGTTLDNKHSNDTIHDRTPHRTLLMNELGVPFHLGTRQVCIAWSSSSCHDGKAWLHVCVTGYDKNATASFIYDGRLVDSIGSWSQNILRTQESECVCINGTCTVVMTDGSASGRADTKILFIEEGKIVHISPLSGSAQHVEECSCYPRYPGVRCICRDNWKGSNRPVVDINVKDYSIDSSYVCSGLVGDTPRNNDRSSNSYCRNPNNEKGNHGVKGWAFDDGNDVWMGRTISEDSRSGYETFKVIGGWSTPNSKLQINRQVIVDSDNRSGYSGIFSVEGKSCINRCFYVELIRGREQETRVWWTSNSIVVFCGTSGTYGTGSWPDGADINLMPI

[3] = biological target: T2, sialidase of influenza A virus A/PR/8/34 (H1N1) (Influenza A virus, UniProt P03468); assay: biochemical
T2 construct: preincubated with 5 μL of the virus containing 2 enzyme units; host or cells: whole virus preparation
T2 sequence (P03468 whole entry): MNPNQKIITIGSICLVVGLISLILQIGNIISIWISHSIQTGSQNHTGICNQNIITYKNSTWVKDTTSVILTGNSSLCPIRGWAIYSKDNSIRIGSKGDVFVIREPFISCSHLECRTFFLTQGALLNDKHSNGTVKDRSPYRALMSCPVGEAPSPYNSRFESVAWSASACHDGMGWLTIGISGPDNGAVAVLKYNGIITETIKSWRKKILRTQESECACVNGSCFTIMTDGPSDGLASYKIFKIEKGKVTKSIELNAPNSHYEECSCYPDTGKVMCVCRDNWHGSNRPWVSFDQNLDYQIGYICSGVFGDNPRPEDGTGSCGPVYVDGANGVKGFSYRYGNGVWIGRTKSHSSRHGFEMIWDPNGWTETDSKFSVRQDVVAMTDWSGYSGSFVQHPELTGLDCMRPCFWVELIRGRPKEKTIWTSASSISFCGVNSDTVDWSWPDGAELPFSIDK

[4] = biological target: human sialidase NEU2; conditions: previously reported; ref [39]; read-out: Human sialidase inhibition (IC50) NEU2; cited from earlier work
[5] = biological target: human sialidase NEU4; conditions: previously reported; ref [39]; read-out: Human sialidase inhibition (IC50) NEU4; cited from earlier work
[6] = biological target: human sialidase NEU3; conditions: previously reported; ref [39]; read-out: Human sialidase inhibition (IC50) NEU3; cited from earlier work
[7] = biological target: human sialidase NEU1; conditions: previously reported; ref [39]; read-out: Human sialidase inhibition (IC50) NEU1; cited from earlier work

Row | SMILES | IC50 [1] [mM] | IC50 [2] [µM] | IC50 [3] [µM] | IC50 [4] [mM] | IC50 [5] [µM] | IC50 [6] [µM] | IC50 [7] [µM]
1 | CCCCC(=O)NC[C@@H](O)[C@@H](O)[C@H]1OC(C(=O)O)=C[C@@H](O)[C@@H]1NC(C)=O [Compound 12] | > 1 | 159 | 34 | – | – | – | –
2 | CC(=O)N[C@@H]1[C@@H]([C@H](O)[C@H](O)CNC(=O)c2ccccc2)OC(C(=O)O)=C[C@H]1O [Compound 6] | > 1 | > 1000 | > 1000 | – | – | – | –
3 | CC(=O)N[C@@H]1[C@@H]([C@H](O)[C@H](O)CNC(=O)C2CC2)OC(C(=O)O)=C[C@H]1O [Compound 8] | 0.098 | 16 | 9 | > 1 | 825 | > 1000 | 680
4 | CC(=O)N[C@@H]1[C@@H]([C@H](O)[C@H](O)CNC(=O)C(C)(C)C)OC(C(=O)O)=C[C@H]1O [Compound 13] | > 1 | 770 | 78 | – | – | – | –
5 | CC(=O)NC[C@@H](O)[C@@H](O)[C@H]1OC(C(=O)O)=C[C@@H](O)[C@@H]1NC(C)=O [Compound 5] | 0.097 | 34 | 22 | > 1 | 580 | > 1000 | 58
6 | CC(=O)N[C@@H]1[C@@H]([C@H](O)[C@H](O)CNC(=O)C(C)C)OC(C(=O)O)=C[C@H]1O [Compound 11] | > 1 | 680 | 54 | – | – | – | –
7 | CCC(CC)C(=O)NC[C@@H](O)[C@@H](O)[C@@H]1OC(C(=O)O)=C[C@H](O)[C@H]1NC(C)=O [Compound 14] | > 1 | > 1000 | 698 | – | – | – | –
8 | CCC(C)C(=O)NC[C@@H](O)[C@@H](O)[C@@H]1OC(C(=O)O)=C[C@H](O)[C@H]1NC(C)=O (some centres unmarked) [Compound 10] | > 1 | > 1000 | 59 | – | – | – | –
9 | CC(=O)N[C@@H]1[C@@H]([C@H](O)[C@H](O)CNC(=O)C2CCCC2)OC(C(=O)O)=C[C@H]1O [Compound 7] | > 1 | > 1000 | 850 | – | – | – | –
10 | CC(=O)N[C@H]1[C@H]([C@H](O)[C@H](O)CO)OC(C(=O)O)=C[C@@H]1O [DANA, 5-acetamido-2,6-anhydro-3,5-dideoxy-D-glycero-D-galacto-non-2-enonic acid, reference compound] | 0.011 | 9 | – | – | 74 | 61 | –
11 | CCCC(=O)NC[C@@H](O)[C@@H](O)[C@H]1OC(C(=O)O)=C[C@@H](O)[C@@H]1NC(C)=O [Compound 9] | – | 559 | 97 | – | – | – | –
